Where no end group is shown, it is not given here.
Tests used:
Assay type in all cases: in vivo, rat
[1] = tested on: Wistar rats; experiment: elevated plus maze test; settings: for number of entries in the open arms, carrier compared with treated animals / percentage of entries into the open arms, carrier compared with treated animals / time spent in the open arms, carrier compared with treated animals: p<0.05
Description: The elevated plus maze test allows the measurement of the density of exploratory behaviour in a new aversive situation [PELLOW et al., 1985 (17)]. The experiment exploits the conflict in rodents, between the fear of open spaces and the desire of exploring a new environment. The rat, placed at the centre of the device is forced to explore its environment. The open arms form an anxiogenic environment, whereas this is not the case of the closed arms. The number of entries in the whole of the arms, that relating to the open arms, the closed arms, the time spent in the open arms, the entry latency in the first open arm, form parameters which reflect the degree of anxiety of the animal.
The elevated plus maze built in wood consists of four branches at 90° from each other. The two open branches (45×10 cm) and the two closed branches (45×10 cm; surrounded with wooden plates over a height of 40 cm) are positioned facing each other. The central square measures 10×10 cm. The open branches are illuminated by white light with an intensity of 500 lux. The elevated plus maze is located at 50 cm from the ground.
The observations take place between 9.0 am and 11.0 am in order to minimize the influence of the circadian rhythm. […] each passage in the elevated plus maze, the animal is placed for 10 min in an open field in order to stimulate its exploratory behavior. It is then placed in the central square of the elevated plus maze and observed for 5 min. The plus maze is washed with 95% (v/v) ethanol between two passages in order to eliminate the odors.
The animals receive their respective treatment via an intra-peritoneal route, half an hour before passing into the open field.

[2] = tested on: Wistar rats; experiment: light/dark box test; settings: for time spent in the aversive non-familiar compartment, carrier compared with treated animals: 10 min observation, p<0.05
Description: The light/dark tests are based on the innate aversion of rodents for intensively illuminated environments and on their spontaneous exploratory behavior in response to slight stress factors such as a new environment and light. The device of the light/dark box allows the study of the exploratory behavior of the rodent towards a non-familiar aversive compartment (intensively illuminated with white light) after habituation in a non-aversive compartment (dark) which then becomes familiar [BOURIN and HASCOËT, 2008 (18)]. Conventional anxiolytics may be detected by using this device.
The light/dark box measures 65×49×35 cm (h×w×l) and is separated into two identical compartments by a plate perforated with three doors of 8×8 cm. The floor is covered with sawdust. Each rat is placed for 24 h in the rear compartment of the box, the doors for communicating with the front compartment being inaccessible. The rear compartment thus becomes the familiar compartment. The animal is fed and hydrated ad libitum. On the day of the test, the rat after treatment is replaced in the familiar compartment and the doors communicating with the front compartment (non-familiar) are made accessible so that the animal may freely explore the environment. The non-familiar compartment is made aversive by white light illumination with an intensity of 1,500 lux. The animals are observed for 10 min and the time spent in each of the compartments is measured.
The animals receive their respective treatment via an intra-peritoneal route, half an hour before opening the communication between the familiar compartment and the non-familiar compartment.

[3] = tested on: Wistar rats; experiment: conditioned defensive burial test
Description: The conditioned defensive burial test was used for measuring the anxiety level in rats. Developed by PINEL and TREIT (16), this test is based on the innate tendency of rodents, placed in a familiar environment of burying any object perceived as being dangerous by projecting on the latter the litter present at ground level. The expression of the burial behavior by the animal is representative of its anxiety level: more it is anxious, more it buries.
The test takes place in a Plexiglas box (44×28×18 cm), one of the walls of which has an orifice through which an electrode (7×2×0.5 cm) may be inserted. The bottom of the box is covered with a thick layer of sawdust (5 cm). The electrode is connected to a generator delivering a 1 mA intensity current when it is actuated by the experimenter. The whole of the experimentation is carried out in low intensity light.
The experiment consists of habituation phase of 2 days followed by a test phase. During the habituation phase, the rats are placed 20 min daily in the test box, without the electrode, in order to accustom them to the experimental device. During the test phase, each rat is individually placed in the box which contains the electrode. When the animal touches the electrode in the first time, it receives a single shock. From this instant, its behavior is filmed for 5 min and behavioral variables are quantified.
The total burial time and the occurrence latency of the burial behavior after the shock are the most significant variables. A certain number of behaviors oriented towards the electrode and correlated with the anxiety level of the rat (approaches, escapes, contacts) are also counted. Finally, indicators of the activity level of the rat such as the number of upright standing postures are reported.
The animals receive their respective treatments, via an intra-peritoneal route, half an hour before passing into the conditioned defensive burial test.

[4] = diazepam 1 mg/kg intra-peritoneal
[5] = fragment 0.7 mg/kg vs diazepam 1 mg/kg intra-peritoneal
[6] = fragment 91-97 0.7 mg/kg intra-peritoneal

| Compound | number of entries in the open arms, carrier compared with treated animals [1, 4] | percentage of entries into the open arms, carrier compared with treated animals [1, 4] | time spent in the open arms, carrier compared with treated animals [1, 4] | time spent in the aversive non-familiar compartment, carrier compared with treated animals [2, 4] | anxiolytic action in conditioned defensive burial ([3]; 0.5 mg/kg intra-peritoneal) | burial duration of an aversive probe after a single 1 mA shock, NaCl 0.9% control compared with treated animals ([3]; 0.5 mg/kg intra-peritoneal, half an hour before test, Mann-Whitney: diazepam p<0.02, fragment 91-97 p<0.04, 5 min observation) | burial duration, fragment 91-97 compared with diazepam ([3]; both 0.5 mg/kg intra-peritoneal) | elevated plus maze open-arm parameters, fragment 91-97 compared with diazepam [1, 5] | number of entries in the open arms, carrier compared with treated animals [1, 6] | percentage of entries into the open arms, carrier compared with treated animals [1, 6] | time spent in the open arms, carrier compared with treated animals [1, 6] | time spent in the non-familiar compartment, fragment 91-97 compared with diazepam [2, 5] | time spent in the aversive non-familiar compartment, carrier compared with treated animals [2, 6] |
| --- | --- | --- | --- | --- | --- | --- | --- | --- | --- | --- | --- | --- | --- |
| CN1C(=O)CN=C(c2ccccc2)c2cc(Cl)ccc21 [diazepam, reference compound] | significantly less | significantly less | significantly less | significantly less |  |  |  |  |  |  |  |  |  |
| YLGYLEQ [fragment 91-97 of αs1 casein, Heptapeptide corresponding to the positions 91-97 of αs1 casein] |  |  |  |  | has an anxiolytic action in Wistar rats which acts in the same direction as that of diazepam | significantly larger | No significant difference | No significant difference | significantly less | significantly less | significantly less | No significant difference | significantly less |
